Data as given in patent US20240270740A1, “INHIBITORS OF CYCLIC GMP-AMP SYNTHASE AND USES THEREOF” (Ventus Therapeutics U.S., Inc., priority 2022, published 2024).

Key:
[1] = target: T1, hcGAS (Homo sapiens, UniProt Q8N884); assay: hcGAS LCMS assay (direct measurement of cGAMP production); assay type: biochemical; settings: for IC50: 0.5 nM hcGAS, 100 μM ATP, 100 μM GTP, 25 nM dsDNA, 4 h incubation
How it was run: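 Direct LC/MS readout of cGAMP formed: 4-h enzyme–substrate incubation with compound, stopped by acetonitrile/water quench carrying isotope-labelled cGAMP (0.15 mM) as standard. Potency reported as IC50 ranges.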

[2] = target: T1, hcGAS; assay: hcGAS Kinase-Glo assay (ATP depletion); assay type: biochemical; settings: for IC50: 40 nM hcGAS, 100 μM ATP, 100 μM GTP, 25 nM dsDNA, 3 h incubation
How it was run: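 Human cGAS activity measured indirectly as ATP depletion by Kinase-Glo luminescence, following the Lama et al. method with modified conditions. Output is IC50, binned into potency categories.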

[3] = compared with Compound 103 (without —CH2OCH3)

T1 sequence (Q8N884 whole entry): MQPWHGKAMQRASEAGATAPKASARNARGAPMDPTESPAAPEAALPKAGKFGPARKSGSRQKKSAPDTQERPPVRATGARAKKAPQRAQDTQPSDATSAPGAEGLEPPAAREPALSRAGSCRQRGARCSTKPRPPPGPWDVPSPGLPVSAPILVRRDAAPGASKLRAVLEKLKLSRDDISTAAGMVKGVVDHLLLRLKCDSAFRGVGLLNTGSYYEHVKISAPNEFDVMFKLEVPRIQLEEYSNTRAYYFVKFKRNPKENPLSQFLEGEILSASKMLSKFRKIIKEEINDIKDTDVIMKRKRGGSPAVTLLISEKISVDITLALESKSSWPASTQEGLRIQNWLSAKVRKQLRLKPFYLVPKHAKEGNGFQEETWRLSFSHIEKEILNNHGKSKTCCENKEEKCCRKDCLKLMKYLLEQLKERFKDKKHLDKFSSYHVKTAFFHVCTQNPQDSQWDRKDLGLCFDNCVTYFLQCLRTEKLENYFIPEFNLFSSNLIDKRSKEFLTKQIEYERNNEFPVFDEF

| Compound | IC50 [1] [nM] | IC50 [2] [nM] | inhibitory activity in hcGAS LCMS assay [1, 3] | inhibitory activity in hcGAS Kinase glo assay [2, 3] |
| --- | --- | --- | --- | --- |
| COc1c(NC23CC(OC)(C2)C3)cc(C(=O)Nc2nnc(-n3nccc3C)s2)oc1=O [Compound 111, 3-methoxy-4-((3-methoxybicyclo[1.1.1]pentan-1-yl)amino)-N-(5-(5-methyl-1H-pyrazol-1-yl)-1,3,4-thiadiazol-2-yl)-2-oxo-2H-pyran-6-carboxamide] | 5 to 20 | 10 to 30 | – | – |
| COc1c(N[C@@H]2CCC[C@@H]2O)cc(C(=O)Nc2nnc(-n3nccc3C)s2)oc1=O [Compound 112, 4-(((1R,2S)-2-hydroxycyclopentyl)amino)-3-methoxy-N-(5-(5-methyl-1H-pyrazol-1-yl)-1,3,4-thiadiazol-2-yl)-2-oxo-2H-pyran-6-carboxamide] | < 5 | < 10 | – | – |
| COC[C@H](Nc1cc(C(=O)Nc2nnc(-n3nccc3C)s2)oc(=O)c1OC)c1ccccc1 [Compound 114, (R)-3-methoxy-4-((2-methoxy-1-phenylethyl)amino)-N-(5-(5-methyl-1H-pyrazol-1-yl)-1,3,4-thiadiazol-2-yl)-2-oxo-2H-pyran-6-carboxamide] | < 5 | < 10 | improved inhibitory activity | improved inhibitory activity |
| COc1c(NC23CC(CC#N)(C2)C3)cc(C(=O)Nc2nnc(-n3nccc3C)s2)oc1=O [Compound 116, 4-((3-(cyanomethyl)bicyclo[1.1.1]pentan-1-yl)amino)-3-methoxy-N-(5-(5-methyl-1H-pyrazol-1-yl)-1,3,4-thiadiazol-2-yl)-2-oxo-2H-pyran-6-carboxamide] | 5 to 20 | 10 to 30 | – | – |
| COc1c(NC23CC(C(C)(C)O)(C2)C3)cc(C(=O)Nc2nnc(-n3nccc3C)s2)oc1=O [Compound 117, 4-((3-(2-hydroxypropan-2-yl)bicyclo[1.1.1]pentan-1-yl)amino)-3-methoxy-N-(5-(5-methyl-1H-pyrazol-1-yl)-1,3,4-thiadiazol-2-yl)-2-oxo-2H-pyran-6-carboxamide] | 5 to 20 | 10 to 30 | – | – |
| COc1c(NC[C@@H](C)OC)cc(C(=O)Nc2nnc(-n3nccc3C)s2)oc1=O [Compound 119, (R)-3-methoxy-4-((2-methoxypropyl)amino)-N-(5-(5-methyl-1H-pyrazol-1-yl)-1,3,4-thiadiazol-2-yl)-2-oxo-2H-pyran-6-carboxamide] | 5 to 20 | 10 to 30 | – | – |
| COc1c(NCC(C)(C)OC)cc(C(=O)Nc2nnc(-n3nccc3C)s2)oc1=O [Compound 120, 3-methoxy-4-((2-methoxy-2-methylpropyl)amino)-N-(5-(5-methyl-1H-pyrazol-1-yl)-1,3,4-thiadiazol-2-yl)-2-oxo-2H-pyran-6-carboxamide] | 5 to 20 | 10 to 30 | – | – |
| COC[C@@H](C)Nc1cc(C(=O)Nc2nnc(-n3nccc3C)s2)oc(=O)c1OC [Compound 121, (R)-3-methoxy-4-((1-methoxypropan-2-yl)amino)-N-(5-(5-methyl-1H-pyrazol-1-yl)-1,3,4-thiadiazol-2-yl)-2-oxo-2H-pyran-6-carboxamide] | 5 to 20 | 10 to 30 | – | – |
| COCCNc1cc(C(=O)Nc2nnc(-c3c(Cl)ccn3C)s2)oc(=O)c1OC [Compound 127, N-(5-(3-chloro-1-methyl-1H-pyrrol-2-yl)-1,3,4-thiadiazol-2-yl)-3-methoxy-4-((2-methoxyethyl)amino)-2-oxo-2H-pyran-6-carboxamide] | < 5 | 10 to 30 | – | – |
| COc1c(NCCO)cc(C(=O)Nc2nnc(-c3c(Cl)ccn3C)s2)oc1=O [Compound 129, N-(5-(3-chloro-1-methyl-1H-pyrrol-2-yl)-1,3,4-thiadiazol-2-yl)-4-((2-hydroxyethyl)amino)-3-methoxy-2-oxo-2H-pyran-6-carboxamide] | 5 to 20 | < 10 | – | – |
| COc1c(NCCO)cc(C(=O)Nc2nnc(-n3nccc3C)s2)oc1=O [Compound 130, 4-((2-hydroxyethyl)amino)-3-methoxy-N-(5-(5-methyl-1H-pyrazol-1-yl)-1,3,4-thiadiazol-2-yl)-2-oxo-2H-pyran-6-carboxamide] | 20 to 60 | 30 to 100 | – | – |
| COc1c(NC(C)C)cc(C(=O)Nc2nnc(-c3c(Cl)ccn3C)s2)oc1=O [Compound 131, N-(5-(3-chloro-1-methyl-1H-pyrrol-2-yl)-1,3,4-thiadiazol-2-yl)-4-(isopropylamino)-3-methoxy-2-oxo-2H-pyran-6-carboxamide] | 5 to 20 | 10 to 30 | – | – |
| COCCNc1cc(C(=O)Nc2nnc(-c3cscc3Cl)s2)oc(=O)c1OC [Compound 136, N-(5-(4-chlorothiophen-3-yl)-1,3,4-thiadiazol-2-yl)-3-methoxy-4-((2-methoxyethyl)amino)-2-oxo-2H-pyran-6-carboxamide] | 5 to 20 | 10 to 30 | – | – |
| COCCNc1cc(C(=O)Nc2nnc(-c3sccc3Cl)s2)oc(=O)c1OC [Compound 146, N-[5-(3-chlorothiophen-2-yl)-1,3,4-thiadiazol-2-yl]-5-methoxy-4-[(2-methoxyethyl)amino]-6-oxopyran-2-carboxamide] | 5 to 20 | 10 to 30 | – | – |
| COc1c(NCCC#N)cc(C(=O)Nc2nnc(-n3nccc3C)s2)oc1=O [Compound 176, 4-((2-cyanoethyl)amino)-3-methoxy-N-(5-(5-methyl-1H-pyrazol-1-yl)-1,3,4-thiadiazol-2-yl)-2-oxo-2H-pyran-6-carboxamide] | 5 to 20 | 10 to 30 | – | – |
| COc1c(NC(C)C)cc(C(=O)Nc2nnc(-n3nccc3C)s2)oc1=O [Compound 179, 4-(isopropylamino)-5-methoxy-N-[5-(5-methylpyrazol-1-yl)-1,3,4-thiadiazol-2-yl]-6-oxopyran-2-carboxamide] | 5 to 20 | 30 to 100 | – | – |
| COc1c(NC23CC(C2)C3)cc(C(=O)Nc2nnc(-n3nccc3C)s2)oc1=O [Compound 182, 4-(bicyclo[1.1.1]pentan-1-ylamino)-3-methoxy-N-(5-(5-methyl-1H-pyrazol-1-yl)-1,3,4-thiadiazol-2-yl)-2-oxo-2H-pyran-6-carboxamide] | 5 to 20 | 10 to 30 | – | – |
| COc1c(NCCS(C)(=O)=O)cc(C(=O)Nc2nnc(-n3nccc3C)s2)oc1=O [Compound 183] | 5 to 20 | 30 to 100 | – | – |
| COc1c(N[C@@H]2CCOC2)cc(C(=O)Nc2nnc(-n3nccc3C)s2)oc1=O [Compound 184, (R)-3-methoxy-N-(5-(5-methyl-1H-pyrazol-1-yl)-1,3,4-thiadiazol-2-yl)-2-oxo-4-((tetrahydrofuran-3-yl)amino)-2H-pyran-6-carboxamide] | 20 to 60 | 30 to 100 | – | – |
| COc1c(N[C@H]2CCOC2)cc(C(=O)Nc2nnc(-n3nccc3C)s2)oc1=O [Compound 185, (S)-3-methoxy-N-(5-(5-methyl-1H-pyrazol-1-yl)-1,3,4-thiadiazol-2-yl)-2-oxo-4-((tetrahydrofuran-3-yl)amino)-2H-pyran-6-carboxamide] | 5 to 20 | 30 to 100 | – | – |
| COc1c(NC[C@H](C)OC)cc(C(=O)Nc2nnc(-n3nccc3C)s2)oc1=O [Compound 187, (S)-3-methoxy-4-((2-methoxypropyl)amino)-N-(5-(5-methyl-1H-pyrazol-1-yl)-1,3,4-thiadiazol-2-yl)-2-oxo-2H-pyran-6-carboxamide] | 5 to 20 | 10 to 30 | – | – |
| COc1c(N2CCCC2)cc(C(=O)Nc2nnc(-n3nccc3C)s2)oc1=O [Compound 216, 3-methoxy-N-(5-(5-methyl-1H-pyrazol-1-yl)-1,3,4-thiadiazol-2-yl)-2-oxo-4-(pyrrolidin-1-yl)-2H-pyran-6-carboxamide] | 5 to 20 | 30 to 100 | – | – |
| COc1c(N[C@H]2CC[C@@H](O)CC2)cc(C(=O)Nc2nnc(-n3nccc3C)s2)oc1=O [Compound 220] | 5 to 20 | 10 to 30 | – | – |
